Source: US20220016060A1, “USE OF SODIUM 2-(3-PENTYLPHENYL)ACETATE IN THE TREATMENT OF ALSTRÖM SYNDROME” (LIMINAL BIOSCIENCES LIMITED, priority 2018, published 2022)

Assays:
Assay type in all cases: in vivo, human
ALMS patients [1] = assay: HOMA-B based on C-peptide and fasting plasma glucose; details: for Change from Baseline HOMA-B Based on C-Peptide and FPG, Mean / Change from Baseline HOMA-B Based on C-Peptide and FPG, Median: 800 mg
Description: (§1) The study was a Phase 2, single-centre, single-arm, open-label study of sodium 2-(3-pentylphenyl)acetate administered at a total daily oral dose of 800 mg for up to 72 weeks in subjects with ALMS was undertaken. The initial duration of the study was 24 weeks, and subjects were offered to enrol into an extension phase of 36 or 48 weeks. The schedule of study procedures for the enrolment, intervention, and assessments for participants is outlined in FIG. 1. Sodium 2-(3-pentylphenyl)acetate was formulated in soft gelatine capsules containing 200 mg of Sodium 2-(3-pentylphenyl)acetate (amorphous powder) per capsule, polyethylene glycol 400, National Formulary (NF), hydrochloric acid (for pH adjustment), and water. E) Homeostasis Model Assessment for Steady State Beta-Cell Function Based on C-Peptide and Fasting Plasma Glucose (HOMA-B [C-Peptide/FPG]) The effect of sodium 2-(3-pentylphenyl)acetate on HOMA-B (C-peptide/FPG) was assessed, and the results are presented in Table 24.

ALMS patients [2] = assay: Cardiac MRI of left ventricular function (LVESV, LVEDV); details: for Change from Baseline LVEDV, Mean (SD) / Change from Baseline LVEDV, Median / Change from Baseline LVESV, Mean (SD) / Change from Baseline LVESV, Median: 800 mg daily oral
Description: The study was a Phase 2, single-centre, single-arm, open-label study of sodium 2-(3-pentylphenyl)acetate administered at a total daily oral dose of 800 mg for up to 72 weeks in subjects with ALMS was undertaken. The initial duration of the study was 24 weeks, and subjects were offered to enrol into an extension phase of 36 or 48 weeks. The schedule of study procedures for the enrolment, intervention, and assessments for participants is outlined in FIG. 1.
Sodium 2-(3-pentylphenyl)acetate was formulated in soft gelatine capsules containing 200 mg of Sodium 2-(3-pentylphenyl)acetate (amorphous powder) per capsule, polyethylene glycol 400, National Formulary (NF), hydrochloric acid (for pH adjustment), and water.
The effect of sodium 2-(3-pentylphenyl)acetate on heart histology in ALMS patients was assessed by measuring left ventricular function (LVF). LVF measurements permit to quantify how well the left ventricle is able to pump blood through the body with each heartbeat, and is also a prognostic factor in acute myocardial infarction.

ALMS patients [3] = assay: Fasting plasma glucose (FPG); details: for Change from Baseline FPG, Mean / Change from Baseline FPG, Median: 800 mg daily oral
Description: as §1, with “water.” for “water. E) Homeostasis Model Assessment for Steady State Beta-Cell Function Based on C-Peptide and Fasting Plasma Glucose (HOMA-B [C-Peptide/FPG]) The effect of sodium 2-(3-pentylphenyl)acetate on HOMA-B (C-peptide/FPG) was assessed, and the results are presented in Table 24.”

[4] = Subject 826-001-001, 204-day break in treatment
[5] = Subject 826-001-007, 32-day break in treatment

Structure (SMILES): CCCCCc1cccc(CC(=O)[O-])c1.[Na+] [sodium 2-(3-pentylphenyl)acetate]
- Change from Baseline HOMA-B Based on C-Peptide and FPG, Mean (ALMS patients [1]; EP Week 12 (Week 36), N 10): 1.70
- Change from Baseline HOMA-B Based on C-Peptide and FPG, Median (ALMS patients [1]; EP Week 12 (Week 36), N 10): 16.50
- Change from Baseline HOMA-B Based on C-Peptide and FPG, Mean (ALMS patients [1]; EP Week 24 (Week 48), N 9): 24.57
- Change from Baseline HOMA-B Based on C-Peptide and FPG, Median (ALMS patients [1]; EP Week 24 (Week 48), N 9): −1.90
- Change from Baseline HOMA-B Based on C-Peptide and FPG, Mean (ALMS patients [1]; EP Week 36 (Week 60), N 8): 1.42
- Change from Baseline HOMA-B Based on C-Peptide and FPG, Median (ALMS patients [1]; EP Week 36 (Week 60), N 8): 8.00
- Change from Baseline HOMA-B Based on C-Peptide and FPG, Mean (ALMS patients [1]; EP Week 48 (Week 72), N 3): 60.17
- Change from Baseline HOMA-B Based on C-Peptide and FPG, Median (ALMS patients [1]; EP Week 48 (Week 72), N 3): 89.40
- Change from Baseline HOMA-B Based on C-Peptide and FPG, Mean (ALMS patients [1]; Week 12, N 11): 52.58
- Change from Baseline HOMA-B Based on C-Peptide and FPG, Median (ALMS patients [1]; Week 12, N 11): 35.60
- Change from Baseline HOMA-B Based on C-Peptide and FPG, Mean (ALMS patients [1]; Week 24, N 12): −1.60
- Change from Baseline HOMA-B Based on C-Peptide and FPG, Median (ALMS patients [1]; Week 24, N 12): 0.60
- subjects in whom HOMA-B (C-peptide/FPG) increased from baseline (ALMS patients [1]; 9/12 subjects): 75.0%
- reduction in HOMA-B (C-peptide/FPG) (ALMS patients [1]; [4]): 62.4
- reduction in HOMA-B (C-peptide/FPG) (ALMS patients [1]; [5]): 33.4
- reduction in HOMA-B (C-peptide/FPG) (ALMS patients [1]; Subject 826-001-013, 30-day break in treatment): 96.7
- subjects in whom LVESV increased or did not change from baseline (ALMS patients [2]; 9/12 subjects): 75.0%
- subjects in whom LVEDV increased from baseline (ALMS patients [2]; 10/12 subjects): 83.3%
- Change from Baseline LVEDV, Mean (SD) (ALMS patients [2]; EP Week 36 (Week 60), N=4): 7.75 (3.948) mL
- Change from Baseline LVEDV, Median (ALMS patients [2]; EP Week 36 (Week 60), N=4): 8.50 mL
- Change from Baseline LVESV, Mean (SD) (ALMS patients [2]; EP Week 36 (Week 60), N=4): 3.75 (2.500) mL
- Change from Baseline LVESV, Median (ALMS patients [2]; EP Week 36 (Week 60), N=4): 3.50 mL
- Change from Baseline LVEDV, Mean (SD) (ALMS patients [2]; Week 24, N=10): 4.40 (16.574) mL
- Change from Baseline LVEDV, Median (ALMS patients [2]; Week 24, N=10): 5.00 mL
- Change from Baseline LVESV, Mean (SD) (ALMS patients [2]; Week 24, N=10): 0.70 (9.650) mL
- Change from Baseline LVESV, Median (ALMS patients [2]; Week 24, N=10): 3.00 mL
- change in LVESV from baseline (ALMS patients [2]; after 60 weeks of treatment): strong trend toward an increase
- mean increase in LVEDV from baseline (ALMS patients [2]; after 60 weeks of treatment, p=0.0294): 7.75 mL
- LVESV relative to normal range (ALMS patients [2]; subject 826-001-015): Normalization of LVESV after treatment
- LVEDV and LVESV relative to normal range (ALMS patients [2]; subjects 826-001-002 and 826-001-004, below normal at baseline): within the normal range after the treatment period
- Change from Baseline FPG, Mean (ALMS patients [3]; EP Week 12 (Week 36), N=10): 0.63 mmol/L
- Change from Baseline FPG, Median (ALMS patients [3]; EP Week 12 (Week 36), N=10): -0.10 mmol/L
- Change from Baseline FPG, Mean (ALMS patients [3]; EP Week 24 (Week 48), N=10): 0.70 mmol/L
- Change from Baseline FPG, Median (ALMS patients [3]; EP Week 24 (Week 48), N=10): -0.10 mmol/L
- Change from Baseline FPG, Mean (ALMS patients [3]; EP Week 36 (Week 60), N=9): 1.49 mmol/L
- Change from Baseline FPG, Median (ALMS patients [3]; EP Week 36 (Week 60), N=9): 0.00 mmol/L
- Change from Baseline FPG, Mean (ALMS patients [3]; EP Week 48 (Week 72), N=3): -0.93 mmol/L
- Change from Baseline FPG, Median (ALMS patients [3]; EP Week 48 (Week 72), N=3): 0.00 mmol/L
- increase in FPG from baseline (ALMS patients [3]; [4]): 7.4 mmol/L
- increase in FPG from baseline (ALMS patients [3]; [5]): 7.9 mmol/L
- Change from Baseline FPG, Mean (ALMS patients [3]; Week 12, N=11): 0.30 mmol/L
- Change from Baseline FPG, Median (ALMS patients [3]; Week 12, N=11): -0.40 mmol/L
